Target: T1, BTK (Homo sapiens, UniProt Q06187)
T1 construct: expressed in transfected cells
Assay: BTK inhibition assay of second generation LFM analogs
Assay type: biochemical
Details: Table 4

T1 sequence (Q06187 2-659): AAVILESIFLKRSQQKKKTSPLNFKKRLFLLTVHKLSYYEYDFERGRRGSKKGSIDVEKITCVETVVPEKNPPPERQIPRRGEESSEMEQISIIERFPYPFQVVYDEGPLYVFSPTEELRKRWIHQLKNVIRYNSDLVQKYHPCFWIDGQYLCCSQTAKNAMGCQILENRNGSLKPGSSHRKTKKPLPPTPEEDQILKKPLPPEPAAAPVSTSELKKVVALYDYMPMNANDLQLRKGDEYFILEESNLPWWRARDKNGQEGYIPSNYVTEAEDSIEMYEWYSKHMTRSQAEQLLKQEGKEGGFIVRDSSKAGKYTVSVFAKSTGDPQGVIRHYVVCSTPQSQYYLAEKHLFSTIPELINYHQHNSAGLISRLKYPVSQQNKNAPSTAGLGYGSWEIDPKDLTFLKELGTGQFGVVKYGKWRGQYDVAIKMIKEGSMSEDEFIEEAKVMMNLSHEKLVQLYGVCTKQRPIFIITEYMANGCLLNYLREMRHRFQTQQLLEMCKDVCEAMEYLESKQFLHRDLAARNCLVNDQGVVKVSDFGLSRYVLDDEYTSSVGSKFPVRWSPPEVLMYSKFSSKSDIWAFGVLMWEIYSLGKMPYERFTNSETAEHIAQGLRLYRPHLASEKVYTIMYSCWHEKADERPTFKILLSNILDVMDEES

An IC50 of 37 µM was found for CC(O)=C(C#N)C(=O)Nc1ccc(Cl)cc1Cl [LFM-A20, α-Cyano-β-hydroxy-β-methyl-N-(2,4-dichlorophenyl)propenamide] in this work.
